Experimental data as given in ChEMBL document CHEMBL1201862, “PubChem BioAssay data set” (2004).
Calls of active or inactive are those of the source.

What was measured:
Streptococcus = test: Group A Streptococcus viability loss, dose response, counter-screen for streptokinase expression inhibitor project, luminescence, BacTiterGlo (AID 1915); assay type: functional, organism-based;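 also: potency for reduction of bacterial viability or growth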
[1] = tested on: Streptococcus sp. 'group A'; test: growth inhibition of control SK(-) GAS strain, dose response, counter-screen for streptokinase expression inhibitor project, luminescence, kanamycin, BacTiterGlo, confirmation (AID 1900); assay type: functional, organism-based
[2] = target: Heat shock protein HSP 90-alpha (Homo sapiens, UniProt P07900); assay type: functional, organism-based
Streptokinase A = target: T1, Streptokinase A (Streptococcus pyogenes serotype M1, UniProt P10520); test: S. pyogenes streptokinase expression inhibitors, potency, dose response, plasminogen activation absorbance, OD405 (AID 1914); assay type: functional, Streptococcus pyogenes M1 GAS;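 also: secreted streptokinase activity via plasminogen activation per viability signal from cell pellet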
T1 sequence (P10520 whole entry): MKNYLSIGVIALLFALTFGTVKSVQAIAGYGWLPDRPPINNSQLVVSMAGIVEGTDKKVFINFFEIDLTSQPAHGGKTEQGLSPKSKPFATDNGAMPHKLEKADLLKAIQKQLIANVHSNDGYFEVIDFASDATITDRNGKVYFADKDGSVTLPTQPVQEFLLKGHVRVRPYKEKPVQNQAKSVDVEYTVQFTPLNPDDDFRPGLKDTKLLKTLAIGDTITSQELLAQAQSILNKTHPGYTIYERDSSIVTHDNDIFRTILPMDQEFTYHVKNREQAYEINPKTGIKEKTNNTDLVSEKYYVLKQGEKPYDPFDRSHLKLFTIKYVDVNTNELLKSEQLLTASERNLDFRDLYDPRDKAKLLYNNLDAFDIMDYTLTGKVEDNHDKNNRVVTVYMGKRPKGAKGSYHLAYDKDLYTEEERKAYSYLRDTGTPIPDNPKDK

Mu-type opioid receptor = Mu-type opioid receptor (Homo sapiens, UniProt P35372); assay type: functional, cell-based;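 also: U2OS cells with beta-arrestin recruitment to OPRM1 by beta-gal complementation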
Sequence of Mu-type opioid receptor (P35372 whole entry): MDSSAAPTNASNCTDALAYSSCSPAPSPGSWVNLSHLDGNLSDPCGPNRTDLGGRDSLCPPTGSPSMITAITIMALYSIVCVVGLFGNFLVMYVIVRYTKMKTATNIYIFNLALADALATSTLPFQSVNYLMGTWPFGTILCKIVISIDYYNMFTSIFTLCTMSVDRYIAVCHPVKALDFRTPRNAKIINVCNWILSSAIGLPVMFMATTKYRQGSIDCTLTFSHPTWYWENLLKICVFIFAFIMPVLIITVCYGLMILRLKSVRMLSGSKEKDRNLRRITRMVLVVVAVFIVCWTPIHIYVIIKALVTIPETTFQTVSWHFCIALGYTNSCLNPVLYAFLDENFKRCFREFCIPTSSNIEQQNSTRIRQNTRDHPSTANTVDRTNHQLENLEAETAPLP

[3] = Shn3 3'UTR reporter inhibitors, dose response, cell-based, Clone20 osteoblasts, firefly luciferase, cherry-picked (AID 624132); assay type: functional;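 also: firefly luciferase luminescence from reporter carrying the Shn3 3'UTR in osteoblasts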
[4] = target: 5-hydroxytryptamine receptor 2A (Mus musculus, UniProt P35363); assay type: functional, cell-based;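 also: CHO-K1 cells with tagged receptor and beta-arrestin; agonist potency measured as compound-induced activation of the receptor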
Sequence of 5-hydroxytryptamine receptor 2A (P35363 whole entry): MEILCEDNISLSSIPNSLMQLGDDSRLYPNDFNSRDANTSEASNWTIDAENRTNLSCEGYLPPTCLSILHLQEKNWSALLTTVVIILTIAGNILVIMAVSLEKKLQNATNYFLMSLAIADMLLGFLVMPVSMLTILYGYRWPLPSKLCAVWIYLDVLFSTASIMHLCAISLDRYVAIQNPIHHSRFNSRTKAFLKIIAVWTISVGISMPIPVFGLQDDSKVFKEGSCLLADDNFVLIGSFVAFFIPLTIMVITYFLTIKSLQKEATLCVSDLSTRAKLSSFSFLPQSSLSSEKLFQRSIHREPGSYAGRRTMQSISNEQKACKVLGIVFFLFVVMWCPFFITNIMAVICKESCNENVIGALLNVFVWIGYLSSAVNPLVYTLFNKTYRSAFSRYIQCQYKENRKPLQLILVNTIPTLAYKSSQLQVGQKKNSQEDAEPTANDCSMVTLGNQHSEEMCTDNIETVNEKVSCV

[5] = target: T2, DNA repair and recombination protein RAD54-like (Homo sapiens, UniProt Q92698); test: inhibitors of human RAD54 branch migration, confirmation, biochemical, fluorescence, cherry-picked samples, dose series (AID 651657); assay type: functional
T2 sequence (Q92698 whole entry): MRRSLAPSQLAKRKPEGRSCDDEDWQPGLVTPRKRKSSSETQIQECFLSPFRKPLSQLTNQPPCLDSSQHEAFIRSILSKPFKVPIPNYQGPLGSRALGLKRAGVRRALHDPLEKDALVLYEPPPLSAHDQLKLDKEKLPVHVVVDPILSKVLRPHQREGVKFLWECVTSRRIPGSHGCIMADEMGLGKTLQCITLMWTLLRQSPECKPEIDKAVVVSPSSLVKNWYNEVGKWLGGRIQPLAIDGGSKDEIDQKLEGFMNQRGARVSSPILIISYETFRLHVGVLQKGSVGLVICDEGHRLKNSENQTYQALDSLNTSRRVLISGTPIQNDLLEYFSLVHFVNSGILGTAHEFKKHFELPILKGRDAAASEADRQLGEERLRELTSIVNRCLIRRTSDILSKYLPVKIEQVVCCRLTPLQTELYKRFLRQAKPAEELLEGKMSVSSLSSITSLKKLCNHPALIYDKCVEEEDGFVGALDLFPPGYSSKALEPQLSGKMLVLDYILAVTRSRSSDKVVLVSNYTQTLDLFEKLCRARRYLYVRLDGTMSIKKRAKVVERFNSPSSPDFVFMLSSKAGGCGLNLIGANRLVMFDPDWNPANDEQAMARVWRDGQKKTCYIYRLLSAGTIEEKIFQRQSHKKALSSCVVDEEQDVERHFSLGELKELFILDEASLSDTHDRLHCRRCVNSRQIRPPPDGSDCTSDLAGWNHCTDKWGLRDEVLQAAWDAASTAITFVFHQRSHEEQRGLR

[6] = MDA-MB-231 cell growth inhibition, dose response, cytotoxicity control for RAD54 inhibitor project, CellTiter-Glo luminescence, cherry-pick (AID 651692); assay type: functional, cell-based
[7] = target: Adenosylmethionine-8-amino-7-oxononanoate aminotransferase (Mycobacterium tuberculosis, UniProt P9WQ81); test: Mycobacterium tuberculosis BioA enzyme inhibitor Measured in Biochemical System Using Plate Reader - 2163-02_Inhibitor_Dose_CherryPick_Activity.; assay type: functional, Mycobacterium tuberculosis UT205
Sequence of Adenosylmethionine-8-amino-7-oxononanoate aminotransferase (P9WQ81 whole entry): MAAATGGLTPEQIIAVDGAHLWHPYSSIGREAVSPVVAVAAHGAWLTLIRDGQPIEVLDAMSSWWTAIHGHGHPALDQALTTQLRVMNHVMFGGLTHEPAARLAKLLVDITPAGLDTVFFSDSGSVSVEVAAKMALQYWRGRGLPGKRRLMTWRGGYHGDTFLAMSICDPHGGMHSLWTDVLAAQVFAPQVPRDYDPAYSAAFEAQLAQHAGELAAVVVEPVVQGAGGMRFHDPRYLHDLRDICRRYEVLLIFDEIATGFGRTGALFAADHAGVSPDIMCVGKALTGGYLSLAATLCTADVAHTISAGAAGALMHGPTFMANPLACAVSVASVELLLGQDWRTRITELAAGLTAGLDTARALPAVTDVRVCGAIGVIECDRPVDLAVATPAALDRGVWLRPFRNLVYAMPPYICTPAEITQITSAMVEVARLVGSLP

[8] = HEK293 cell viability, dose response, counter-screen for EBV LMP1 inhibitor project, dry powder, set 2 (AID 624374); assay type: functional

With `COc1cccc(-c2nc(NC3CCCC3)c3ccccc3n2)c1O` the EC50 (Streptococcus) was > 150 µM (not active), the EC50 [1] was 5.91 µM (active) and the AC50 [2] was 3.8 µM (active). The EC50 (Streptokinase A) was 78.1 µM (inconclusive), the EC50 (Mu-type opioid receptor) was 92.4 µM (inactive) and the AC50 [3] was 25 µM (active). For the same compound, the EC50 [4] was 7.62 µM (active).
For `CCOC(=O)c1c(C)n(-c2ccc(OC)cc2)c2ccc(O)c(CN(C)C)c12`, the AC50 [5] was 52.6 µM (active) and the AC50 [6] was 34.4 µM (active).
For `O=C(NCC(c1ccco1)N1CCN(c2ccccc2F)CC1)C1CCCCC1` (centres undefined), the EC50 (Mu-type opioid receptor) was 92.5 µM (inactive) and the EC50 [4] was 76.1 µM (inactive).
In the case of `CCC(=O)N1CC[C@@H]2[C@H]1c1cc(-c3cccc(F)c3)ccc1N(C)[C@@H]2CO`, the AC50 [7] is reported as 2.44 µM (active).
For `COC(=O)[C@@H]1[C@@H](CO)[C@@H]2Cn3c(ccc(-c4ccccc4)c3=O)[C@@H]2N1Cc1cccc(F)c1`, the AC50 [7] was 4.33 µM (active).
With `CO[C@H]1CN(C)C(=O)c2ccc(NC(=O)C3CC3)cc2OC[C@H](C)N(C(=O)c2ccccn2)C[C@H]1C` the AbsAC35 [8] was 207.94 µM.
